Several values for one entry are separate records, joined by “and”; a condition that tells them apart may be missing. Equal entries are not always repeated.
Key:
human red blood cells = assay: Hemolysis assay; conditions: peptide concentration 256 µg/mL, 30 min, 37 °C
Method: A hemolysis assay was performed to determine the activity of latarcins against human red blood cells, allowing us to compare the results to those of previous experiments in which rabbit erythrocytes were used. The activity was determined for each latarcin as a function of increasing concentration, up to a maximum of 256 µg of peptides per mL. […] The percentage hemolysis of the other peptides was determined at the highest tested concentration of 256 µg/mL.
The influence of latarcins on human erythrocytes was determined by using a hemolysis assay modified from previously published methods. Blood was obtained from the blood bank of the local hospital in Karlsruhe and stabilized with citrate phosphate dextrose buffer. Erythrocyte suspension (5 mL) was taken up in Tris buffer (45 mL, 172 mM, pH 7.6) at room temperature, gently mixed, and centrifuged (1500 rpm, 10 min). The supernatant solution was removed, and Tris wash was repeated twice with 45 mL as above. The washed erythrocytes (1 mL) were suspended in 9 mL Tris buffer to make the stock cell suspension, which was then further diluted to 0.25% (v/v) at 37 °C before use. Peptide stock solutions were prepared with 1024 µg/mL in Tris buffer containing 10% DMSO, and serial dilutions were prepared in the range of 512 µg/mL to 2 µg/mL as described previously. For the positive control, Triton X-100 (200 µL of 0.2% v/v) was used, and as the negative control, Tris buffer (200 µL, 172 mM) was used. Erythrocyte stock cell suspension (200 µL) was added to each of the samples and incubated for 30 min at 37 °C with gentle shaking before determining the percentage of hemolysis as described previously.

[1] = test system: Bacillus subtilis subsp. spizizenii (DSM 347), Staphylococcus xylosus (DSM 20267), Escherichia coli (DSM 1116), Acinetobacter sp. (DSM 586); conditions: for MIC: irrespective of the bacterial strain (all four strains), Müller-Hinton medium, 20 h at 37 °C, maximum tested 256 µg/mL; for MIC (relative antimicrobial activity): relative activity over two Gram-positive and two Gram-negative strains
Method: The effect of latarcins against four types of bacteria was determined using a minimum inhibitory concentration (MIC) assay on two Gram-positive strains (Bacillus subtilis subsp. spizizenii and Staphylococcus xylosus) and two Gram-negative strains (Escherichia coli and Acinetobacter sp.). Although the antimicrobial activity of latarcins is well documented, these experiments served to ensure that all studies were performed on molecules that show the expected antimicrobial activity.
The minimum inhibitory concentration (MIC) was determined as previously reported. For each latarcin, MIC was determined against two Gram-positive strains, namely Bacillus subtilis subsp. spizizenii (DSM 347) and Staphylococcus xylosus (DSM 20267), and two Gram-negative strains: Escherichia coli (DSM 1116) and Acinetobacter sp. (DSM 586). Bacterial cultures were grown in Müller-Hinton medium (MHM) as described previously, and peptides were dissolved in sterile water containing 10% DMSO. The stock solution of peptides with 1024 µg/mL was prepared such that serial dilutions of peptides (from 256 µg/mL to 2 µg/mL) in MHM were prepared in 96-well plates with the penultimate column without peptide to act as positive control (no peptide) and the final column as negative control (no bacteria). Bacterial stock suspension was made with an OD of 0.2 units at 550 nm. This stock solution was further diluted (1:1000 for Gram-negative bacteria and 1:100 for Gram-positive bacteria), and subsequently, 50 µL of the resulting bacterial suspension was added to the wells except the final well to give a final concentration of 10^6 colony-forming units per mL. Afterwards, the 96-well plates were incubated at 37 °C for 20 h, and cellular respiration was detected by adding 20 µL of resazurin solution (200 µg/mL) for an additional 2 h at the same temperature.

[2] = Oriented circular dichroism (helix alignment in membrane); format: physicochemical; conditions: DMPC/DMPG (7/3), P/L = 1:100, oriented hydrated bilayers, 30 °C
From the text: This is the same lipid composition and peptide-to-lipid ratio as was used in conventional CD above (see Figure 2), but in contrast to the vesicular samples containing excess water, the oriented membranes for OCD are just about saturated with water.
The sign and intensity of the 208 nm band provide a characteristic signature of the helix tilt angle in the membrane [19]. For a helical peptide that lies flat on the bilayer surface, this band is the most intense.
To prepare oriented CD (OCD) samples, latarcins depending on their solubility were dissolved either in pure MeOH or CHCl3/MeOH 1/1 (v/v) and thoroughly mixed with appropriate aliquots of DMPC/DMPG solutions (7/3 molar ratio) in the same solvent. Each co-dissolved mixture with a peptide-to-lipid molar ratio of 1/100 was deposited on a quartz glass plate using a gas-tight syringe. To achieve a spot size of 12.5 mm on the 20 mm diameter plates (Suprasil QS, Hellma Optik GmbH, Jena, Germany), a volume of ~55–60 µL was used. The organic solvents were evaporated in a gentle stream of air until the sample appeared dry. The amounts of deposited lipid and peptide on the plate were always 0.29 μmole and 2.9 nmole, respectively. The peptide-lipid-film was further dried under reduced pressure for at least 3 h. Afterwards, each plate with the dried sample was fixed and sealed by a polymer O-ring in a cylindrical sample holder. The plate with the sample and a second window plate without the sample formed a compartment for controlled hydration. The holder was assembled in a custom-built hydration cell. In the inner compartment of the sample holder, the peptide-lipid film was hydrated for about 15 h at 30 °C and 97% relative humidity via the gas phase by a saturated K2SO4 solution contained in an adjacent cavity of the hydration cell. During hydration, the lipids spontaneously align as lipid bilayers that are macroscopically oriented perpendicular to the glass surface. For the measurement, the holder was transferred to an OCD sample cell that had been developed and built in-house [20]. It is computer-controlled and can be integrated into a Jasco spectropolarimeter as an accessory. The optical path runs along the cylindrical axis of the cell, i.e., normal to the quartz glass plate surface carrying the oriented lipid film. To reduce possible spectral artifacts caused by linear dichroism (LD) or linear birefringence (LB) due to imperfections in the sample, strain in the quartz glass or imperfect alignment of the windows, the OCD spectra were recorded in steps of 45° by rotation of the cell around the beam axis [19, 20]. At each angle, two scans were recorded from 260–185 nm as an average, using a scan rate of 20 nm min^−1, 4 s response time, and 1 nm bandwidth.

[3] = ANTS/DPX fluorescence vesicle leakage assay; conditions: vesicle leakage of ANTS/DPX in POPC/POPG (1/1) LUVs, P/L = 1:50, 100 µM lipid, 10 min, 30 °C, pH 7.5
Method: The ability of the peptides to induce leakage in large unilamellar vesicles (≈120 nm diameter) of POPC/POPG (1/1) was studied using a fluorescence assay using ANTS/DPX, as described previously.
For the leakage experiments, the buffer in which the vesicles were prepared contained the fluorophore ANTS (12.5 mM), the quencher DPX (45 mM), 50 mM NaCl, and 10 mM HEPES (pH 7.5). Liposomes were prepared by co-dissolving POPC/POPG 1/1 (mol/mol) lipids in CHCl3/MeOH (3/1 v/v), together with 10^−2 mol% Rhod-PE, by which the lipid loss during vesicle preparation (extrusion and gel filtration, see below) could be quantified. The peptide-to-lipid ratio (P/L) is given in mol/mol. The lipid mixture was dried under N2(g) and dried under vacuum for 2–4 h. The obtained thin film was then re-suspended in the buffer, which contained the fluorophore and the quencher, by vigorous vortexing, followed by 10 freeze–thaw cycles. Large unilamellar vesicles (LUV) were obtained by 41-fold extrusion (Avanti Mini Extruder; Avanti Polar Lipids, Alabaster, AL, USA) of the liposomes through a Nuclepore polycarbonate membrane (pore size 100 nm, Whatman-GE Healthcare Europe, Freiburg, Germany) at a temperature 20 °C above the lipid phase transition. […]
The leakage of entrapped ANTS was monitored by fluorescence dequenching of ANTS [18]. Fluorescence measurements were performed in a thermostated cuvette with constant stirring at 30 °C in the elution buffer used for gel filtration on a FluoroMax2 spectrofluorimeter (HORIBA Jobin Yvon, Unterhaching, Germany) by setting the ANTS excitation wavelength to 355 nm and its emission wavelength to 510 nm. Peptide stock solutions in water were prepared, and the peptide concentration was calculated from the weighed amount. […] The fluorescence signal was followed for 10 minutes, and after that time, Triton X-100 was added to completely disrupt the vesicles. The level of 0% leakage corresponded to the fluorescence of the vesicles immediately after their addition, while 100% leakage was the fluorescence value obtained after the addition of Triton X-100.
The synergy of the peptides towards vesicle leakage was investigated by pair-wise combinations of latarcins. The leakage was measured for each peptide alone at P/L = 1/100 and for peptide combinations at P/P/L = 1/1/100. The synergy factor, SF, is calculated according to:SF = L(P1 + P2)/[L(P1) + L(P2)].(1)
Here, L(P1) is the leakage of peptide 1 alone, L(P2) is the leakage of peptide 2 alone, and L(P1 + P2) is the leakage for the mixture of the peptides. […] The SF was determined separately for each batch of samples, and then the individual SF values were averaged.

Substance | % Hemolysis (human red blood cells) | MIC [1] | MIC (relative antimicrobial activity) [1] | OCD: orientational state of the helix [2] | % Leakage [3]
H-GFFGKMKEYFKKFGASFKRRFANLKKRL-NH2 [Ltc5] | 27% | below 4 µg/mL | +++ | Surface | 
H-QAFQTFKPDWNKIRYDAMKMQTSLGQMKKRFNL-OH [Ltc6a] | 3% |  | + | Aggregated | 50% and 46%
H-GLKDKFKSMGEKLKQYIQTWKAKF-NH2 [Ltc4a] | 12% | 8 to 32 µg/mL | ++ |  | 20% and 22%
G E TF D K L K E K L K TFYQ K LV E K A ED L K G D L K A K LS-acid [Ltc7] | 2% | > 256 µg/mL | − | Surface | 50% and 54%
H-SWKSMAKKLKEYMEKLKQRA-NH2 [Ltc3a] | 16% | 8 to 32 µg/mL | ++ | Slight tilt | 20%
